According to patent US8591954B2, “Phospholipid-based inhalation system” (Next Breath, LLC, priority 2006, dated 2013):
Entries after “also recorded” stand apart in the source; their conditions may differ.

How the values were obtained:
[1] = 25° C.; cited from earlier work
[2] = test system: A549 cells; assay: Migration of latex beads on A549 cell surface after application of surfactant (microgrid / semi-automated counting); assay type: cell-based; details: 4.5 μm latex beads on A549 cells, CELLocate microgrid, surfactant applied directly; p<0.05, ANOVA; water control showed no migration
Source text: A particularly preferred embodiment of the present invention comprises the identification of molecules to be used in the pMDI to push the medication deeper into the lungs. For this purpose an in vitro technique to visualize and monitor migration of latex beads placed on tissue cells after application of the appropriate surfactant may be used. […] K. Fumoto, […]. […] The microgrid coverslips can be used to monitor and quantify bead movement on cell surfaces reflecting similar characteristics to tracheal and pulmonary tissues. […] The movement of latex beads may then be monitored by counting the beads before adding the surfactant and then again after allowing the surfactant to spread for a period of time (for example 10 seconds). […] The effect of pMDI-delivered surfactant, e.g., PTC, Survanta®, on latex bead movement can be determined using the above cell model. […] Beads in 220 μm^2 virtual square grids along a 220×11,000 μm lane (50 grids in total), predefined using the automated stage controller coupled to the microscope, can be counted and quantified, before (initial) and after (final) application of surfactant. Bead migration along an extended lane can then be monitored. […]

Compound: FC(C(F)(F)F)C(F)(F)F [HFA-227]
- dielectric constant [1]: 3.94

Compound: Phosphatidylcholine [PTC]
- migration of latex beads (bead count ratio Final:Initial) [2]: significant migration of latex beads; also recorded: significantly migrate
